Consider eight molecules from PMC4891693, “Discovery of prenylated flavonoids with dual activity against influenza virus and Streptococcus pneumoniae” (Scientific Reports, 2016).

Values after ≈ are worked out from the molar mass of the structure shown. Values joined by “and” are separate entries in the source; they are usually repeats but may differ in a detail not shown here. Equal values may be shown once. “Also recorded” adds a separate entry of the source. Read-outs that look alike come from different tables or passages of the source.

The subject of data set [1] is influenza virus A/WSN/33. Nature of the data set: microbe, parasite or virus in culture. In kind it is cell-based. As to conditions: read-out: IC50 of CPE assay (A/WSN/33).
Data set [2] concerns human erythrocytes.
In data set [3] the test system is human erythrocytes. Nature of the data set: Interference with hemagglutination in the viral HA assay.
The subject of data set [4] is NA of S. pneumoniae DSM20566 (precipitated bacterial proteins). Nature of the data set: Hemagglutination (HA)-based NA inhibition assay, bacterial. In kind it is biochemical, Streptococcus pneumoniae. Particulars: pure compounds; total protein of DSM20566; human erythrocytes; highest tested 100 μM. From the text: Inhibition of pneumococcal NAs circumvents hemagglutination.

Data set [5] deals with human lung carcinoma cells (A549).
Data set [6] concerns the target influenza virus A/WSN/33 NA (Influenza A virus, UniProt P03470). Nature of the data set: biochemical.
Data set [7] deals with Madin-Darby canine kidney (MDCK) cells.
The subject of data set [8] is IAV Jena/8178/2009 (8178/09). Nature of the data set: microbe, parasite or virus in culture. In kind it is cell-based, Influenza A virus. As to conditions: 48 h, read-out: IC50 of CPE IAV 8178/09.
The nature of data set [9]: in vitro. Particulars: dog.
In data set [10] the test system is IAV 8178/09 in A549 cells. The format is cell-based, Influenza A virus. As to conditions: 50 µM.
Data set [11] can be described thus: in vitro. Particulars: human.
For data set [12], the system named is S. pneumoniae DSM20566 biofilm. Nature of the data set: Scanning electron microscopy of pneumococcal biofilm on glass slides. In kind it is cell-based, Streptococcus pneumoniae. Particulars: 10 μM, 7 days.
For data set [13], the system named is human erythrocytes. The source holds these as a separate data set.
The test system of data set [14] is Madin-Darby canine kidney (MDCK) cells. Nature of the data set: Cytotoxicity in MDCK cells. Particulars: read-out: CC50 in MDCK cells; pure compounds; 72 h; highest tested 100 μM.
In data set [15] the test system is human lung carcinoma cells (A549). Nature of the data set: Cytotoxicity in A549 cells. As to conditions: read-out: CC50 in A549 cells; pure compounds; 72 h; highest tested 100 μM.
Data set [16] in a line: Cytotoxicity in MDCK cells. Particulars: dog.
A short description of data set [17]: Cytotoxicity in A549 cells. Particulars: human.
[18] abbreviates: pure compounds, human erythrocytes, 2 h at 4 °C.
The mark [19] stands for this setting: treatment from 3 h after inoculation.

Sequence of influenza virus A/WSN/33 NA (P03470 whole entry, looked up): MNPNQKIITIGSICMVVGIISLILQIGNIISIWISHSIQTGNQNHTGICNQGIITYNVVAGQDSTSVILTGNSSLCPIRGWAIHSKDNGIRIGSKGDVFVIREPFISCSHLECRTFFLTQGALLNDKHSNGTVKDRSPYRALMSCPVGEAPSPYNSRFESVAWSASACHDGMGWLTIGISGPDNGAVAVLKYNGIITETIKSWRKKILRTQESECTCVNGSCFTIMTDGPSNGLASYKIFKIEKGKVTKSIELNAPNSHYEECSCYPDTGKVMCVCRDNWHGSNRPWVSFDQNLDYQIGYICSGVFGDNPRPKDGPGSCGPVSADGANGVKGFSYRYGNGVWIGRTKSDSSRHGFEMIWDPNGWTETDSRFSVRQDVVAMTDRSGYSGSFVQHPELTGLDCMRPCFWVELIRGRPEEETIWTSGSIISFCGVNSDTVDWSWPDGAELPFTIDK

With sanggenon G [Compound 4], the results for the IC50 in data set [1], in data set [6] (read-out: IC50 in FL assay (influenza virus A/WSN/33 NA)) and in [8] were 15.2 ± 14 µM, 61.7 ± 17.8 µM and 8.78 ± 0.89 µM, respectively. Further, the “sample concentrations provoking induction of erythrocyte lysis in bacterial HA assay” value in [2] is 31.6 to 100 µM. Further, the “sample concentrations provoking induction of erythrocyte lysis in viral HA assay” value in data set [3] (setting [18]) lay within 10 to 100 µM. Besides, the “sample concentrations provoking prevention of virus-induced hemagglutination in viral HA assay” value in data set [3] (setting [18]) was 3.1 to 100 µM. Moreover, the “MIC in HA assay against S. pneumoniae DSM20566” value (“MIC in HA assay” for short) in data set [4] is 5.4 µM and 5.44 ± 3.95 µM. The CC50 was 72.9 ± 17.2 µM in data set [5] and above 100 µM in data set [7].
With `COc1c(CC=C(C)C)cc([C@@H]2CC(=O)c3c(O)cc(O)cc3O2)cc1CC=C(C)C` [Compound 27, abyssinone-V 4'-methyl ether], the “sample concentrations provoking induction of erythrocyte lysis in bacterial HA assay” value in data set [2] (human) is 31.6 to 100 µM. Moreover, the “sample concentrations provoking prevention of virus-induced hemagglutination in viral HA assay” value in [3] lay within 3.16 to 100 µM. The “MIC in HA assay” value in data set [4] is 7.72 ± 3.53 µM (≈ 3.26 µg/mL). The CC50 at 72 h in [9] was 2.29 ± 0.1 µM; in data set [11], above 100 µM. In addition, the “viral yield in A549 cells in the presence of NanA of DSM20566” value in data set [10] is given as 7.4 ± 1.2%. For the same molecule, the “virus yield in A549 cells in the absence of NanA” value in [10] is on record as 3.2 ± 1.4%. The “biofilm formation by scanning electron microscopy” value in data set [12] (setting [19]) was “completely prevented biofilm formation; also recorded: strong effect”; in [12] (treatment from 6 h after inoculation), “no biofilm was formed”; in data set [12] (treatment from 9 h after inoculation), “affected biofilm formation weakly”; in data set [12] (treatment from 48 h after inoculation), “had no effect”. The molecule also came in with an IC50 in data set [6] of 33.1 ± 11.7 µM. Besides, in data set [13], the “sample concentrations provoking induction of erythrocyte lysis in viral HA assay” value is “no”.
For `CC(C)=CCC/C(C)=C/Cc1c(O)ccc([C@@H]2CC(=O)c3c(O)cc(O)cc3O2)c1O` [Compound 5, sanggenol A], the IC50 in data set [1] (WSN, MDCK) was 35.4 ± 14.6 µM; in [6] it was 65.5 ± 9.29 µM. Further, the “sample concentrations provoking induction of erythrocyte lysis in bacterial HA assay” value in data set [2] (human) stood at 100 µM. For the same molecule, the “sample concentrations provoking prevention of virus-induced hemagglutination in viral HA assay” value in data set [3] is on record as 100 or no. In addition, the “MIC in HA assay” value in data set [4] was 31.6 µM and 31.6 ± 0.00 µM. In addition, the CC50 at 72 h in data set [9] is 42.1 ± 4.45 µM; in [11], above 100 µM. In addition, in data set [10], the “viral yield in A549 cells in the presence of NanA of DSM20566” value amounted to 31.8 ± 4.5%. Besides, in data set [10], the “virus yield in A549 cells in the absence of NanA” value worked out at 5.1 ± 1.8%. The “sample concentrations provoking induction of erythrocyte lysis in viral HA assay” value in data set [13] (human) is recorded as 100 or no.
In the case of sanggenon D [Compound 3], the “sample concentrations provoking induction of erythrocyte lysis in bacterial HA assay” value in data set [2] was found to be 100 µM. The values for the CC50 in data set [14] and in [15] were 99 ± 8.7 µM and 79.9 ± 11.2 µM, respectively. The “sample concentrations provoking induction of erythrocyte lysis in viral HA assay” value in [3] (setting [18]) is 31.6 to 100 µM. For the same molecule, the “sample concentrations provoking prevention of virus-induced hemagglutination in viral HA assay” value in [3] (setting [18]) is recorded as “no”. The “MIC in HA assay” value in data set [4] is 31.6 µM and 31.6 ± 0.00 µM.
On to `CCC(CC)O[C@@H]1C=C(C(=O)O)C[C@H](N)[C@H]1NC(C)=O` [Oseltamivir carboxylate GS4071, reference compound], for which the “MIC in HA assay” value in data set [4] was 2.08 ± 1.25 µM (≈ 0.591 µg/mL). Besides, the “biofilm formation by scanning electron microscopy” value in [12] (setting [19]) was “did not impair biofilm formation”.
As to `O=c1cc(-c2ccc(O)c(O)c2)oc2cc(O)cc(O)c12` [Compound 15, luteolin], the values for the CC50 at 72 h in data set [16] and in data set [17] were 23 ± 0.18 µM and above 100 µM, respectively. For the same molecule, the “sample concentrations provoking prevention of virus-induced hemagglutination in viral HA assay” value in [3] is listed as “no”. For the same molecule, the “MIC in HA assay” value in data set [4] is 23.0 ± 11.8 µM (≈ 6.58 µg/mL). In data set [6], this molecule yielded an IC50 above 100 µM.
Turning to `O=c1cc(-c2ccc(O)c(O)c2O)oc2cc(O)cc(O)c12` [Compound 14, 2',3',4',5,7-pentahydroxyflavone], the IC50 in data set [1] (WSN, MDCK) was above 100 µM; in [6] it was above 100 µM; in [8] (Influenza A virus, MDCK) it was above 100 µM. In addition, in data set [2], the “sample concentrations provoking induction of erythrocyte lysis in bacterial HA assay” value is “no”. In addition, in data set [3], the “sample concentrations provoking prevention of virus-induced hemagglutination in viral HA assay” value is “no”. The “MIC in HA assay” value in data set [4] amounted to 72.6 ± 37.5 µM (≈ 21.9 µg/mL). In addition, the CC50 at 72 h in data set [9] and in data set [11] was above 100 µM in each case. In data set [13], the “sample concentrations provoking induction of erythrocyte lysis in viral HA assay” value is reported as “no”.
Take `O=C1CC(c2ccc(O)c(O)c2)Oc2cc(O)cc(O)c21` (racemic) [Compound 11, (±)-eriodictyol]: the IC50 is 68.4 ± 12.9 µM in [1] (WSN, MDCK); above 100 µM in data set [6]; 78.3 ± 5.72 µM in data set [8] (Influenza A virus, MDCK). Also, the “sample concentrations provoking induction of erythrocyte lysis in bacterial HA assay” value in data set [2] is reported as “no”. The CC50 at 72 h in data set [16] and in data set [17] was above 100 µM throughout. The “sample concentrations provoking prevention of virus-induced hemagglutination in viral HA assay” value in data set [3] is on record as “no”. For the same molecule, the “MIC in HA assay” value in [4] stood at 45.3 ± 30.6 µM (≈ 13.1 µg/mL). Further, in data set [13], the “sample concentrations provoking induction of erythrocyte lysis in viral HA assay” value was “no”.
